# Key:
# HL-60/R10 = assay: Cytotoxicity test (ViaLight Plus cell proliferation) on HL-60/R10; format: cell-based, human; details: doxorubicin-resistant line, 72 hours' incubation, cell viability vs 0.5% DMSO control, read-out: EC50 HL60/R10; for IC50: Homo sapiens, HL-60, 72 h
# Source text: (§1) The effects of the compounds of the invention on the proliferation of cancer cells were studied on different human cancer cell lines of different tissue origin (MCF-7: breast cancer, MCF-7/adr adriamycin-resistant breast cancer, HL-60: acute promyelocytic leukaemia, HL-60/R10: doxorubicin-resistant acute promyelocytic leukaemia, HT29: colon adenocarcinoma, Mia Paca2: pancreatic tumour, Panc-1: pancreatic exocrine tumour, SK-OV-3: cisplatin- and adriamycin resistant ovarian cancer). The cancer cells used for this study were incubated at 37° C. in the presence of one of the compounds of the invention added to the culture medium at different concentrations.
# (§2) The cancer cell lines were obtained from ATCC (American Type Culture Collection) for MCF-7, from Hôpital de la Pitié Salpetrière for MCF-7/adr and from Oncodesign (Dijon, France) for HL-60, HL-60/R10, HT29, MiaPaCa2, Panc-1 and SK-OV-3. They were cultured in RPMI 1640 medium containing 2 mM L-Glutamine supplemented with 10% foetal calf serum (Lonza; Verviers, Belgium). All the cell lines were held in culture at 37° C. in a humid atmosphere containing 5% CO2. Cell proliferation was assessed using the ViaLight® Plus Assay Kit (Lonza; Verviers, Belgium) following the manufacturer's instructions. The cells were seeded in 96-well culture plates compatible with luminescence read-off (white plates with transparent bottom) in a proportion of 5 000 to 10 000 cells per well in 100 μl of culture medium. After a pre-incubation time of 24 hours at 37° C., the compounds of the invention dissolved in dimethylsulfoxide (DMSO) were individually added to each well in a proportion of 0.5 μl per well. After 72 hours' incubation at 37° C. in a humid atmosphere containing 5% CO2, 50 μl of lysis buffer were added to each well and 15 minutes later 100 μl of ATP measuring agent were added. The plates were read under a luminometer to evaluate cell viability. The data obtained was processed by computer to obtain the EC50 value i.e. the concentration value of each of the compounds which induces 50% cell viability compared with a control value (0.5% DMSO alone).
# MCF-7 = assay: Cytotoxicity test (ViaLight Plus cell proliferation) on MCF-7; format: cell-based, human; details: 72 hours' incubation, cell viability vs 0.5% DMSO control; for IC50: Homo sapiens, MCF7, 72 h, read-out: EC50 MCF-7
# Source text: as §1, §2
# MCF-7/adr = assay: Cytotoxicity test (ViaLight Plus cell proliferation) on MCF-7/adr; format: cell-based, human; details: adriamycin-resistant line, 72 hours' incubation, cell viability vs 0.5% DMSO control; for IC50: Homo sapiens, NCI/ADR-RES, 72 h, read-out: EC50 MCF-7/adr
# Source text: as §1, §2
# HL-60 = assay: Cytotoxicity test (ViaLight Plus cell proliferation) on HL-60; format: cell-based, human; details: 72 hours' incubation, cell viability vs 0.5% DMSO control; for IC50: Homo sapiens, HL-60, 72 h, read-out: EC50 HL-60
# Source text: as §1, §2
# [1] = Pharmacokinetic parameters in mice; format: in vivo, balb/c mice; details: mouse, balb/c mice, intravenous route, 10 mg/kg, plasma
# Description: The pharmacokinetic behaviour of compounds is a pre-requisite for reasonable use thereof in in vivo experimentation. The compounds were given in DMSO solution via intravenous route (IV) or oral route (PO) to balb/c mice. Blood samples were taken at times ranging from 5 minutes to 6 hours, the plasmas were collected and the concentration of the compounds in each sample was assayed by LC/MS/MS. The data obtained allowed the plotting of time-concentration curves and determination of fundamental parameters such as plasma half-life of the compound (T½), area under curve at a given time (AUCt) and the maximum concentration obtained (Cmax).
Compound,IC50 (HL-60/R10) [nM],IC50 (MCF-7) [nM],IC50 (MCF-7/adr) [nM],IC50 (HL-60) [nM],also measured
CC1CN(C(=O)C(c2cccs2)N(C(=O)CCl)c2cccc(C(F)(F)F)c2)CC(C)N1C(=O)OCc1ccccc1 (stereo not shown) [Example I-29],38,1030,54,939,–
CC1CN(C(=O)C(c2cccs2)N(C(=O)CCl)c2ccc(Oc3ccccc3)cc2)CC(C)N1 (stereo not shown) [Example I-30],10,1010,44,202,–
CC1CN(C(=O)C(c2cccs2)N(C(=O)CCl)c2ccc(Oc3ccccc3)cc2)CC(C)N1C(=O)OCc1ccccc1 (stereo not shown) [Example I-31],64,2500,89,766,–
CC1CN(C(=O)C(c2cccs2)N(C(=O)CCl)c2ccc(Oc3ccccc3)cc2)CC(C)N1C(=O)OC(C)(C)C (stereo not shown) [Example I-32],78,2500,58,175,–
O=C(C(c1cccs1)N(C(=O)CCl)c1ccc(Oc2ccccc2)cc1)N1CCN2CCC[C@H]2C1 (stereo partly shown) [Example I-34],30,1780,100,1120,–
O=C(C(c1cccs1)N(C(=O)CCl)c1ccc(Oc2ccccc2)cc1)N1CC2CC1CN2 (stereo not shown) [Example I-35],249,632,863,300,–
C[C@@H]1CN(C(=O)C(c2cccs2)N(C(=O)CCl)c2ccc(Oc3ccccc3)cc2)CCN1C(=O)OCc1ccccc1 (stereo partly shown) [Example I-36],28,2500,24,372,–
Cc1cc(Oc2ccccc2)ccc1N(C(=O)CCl)C(C(=O)N1CCN(C(=O)OCc2ccccc2)[C@H](C)C1)c1cccs1 (stereo partly shown) [Example I-37],154,2500,156,967,–
Cc1c(N(C(=O)CCl)C(C(=O)N2C[C@@H](C)N[C@@H](C)C2)c2cccs2)cccc1C(F)(F)F (stereo partly shown) [Example I-38],189,2500,851,2500,–
CC[C@H]1CN(C(=O)C(c2cccs2)N(C(=O)CCl)c2ccc(Oc3ccccc3)cc2)CCN1 (stereo partly shown) [Example I-39],9,776,52,1810,–
Cc1cc(Oc2ccccc2)ccc1N(C(=O)CCl)C(C(=O)N1CCNCC1)c1cccs1.Cl (stereo not shown) [reference compound],–,–,–,–,AUC(0-inf) [1]: 1320 ng·h/mL; AUC(0-t) [1]: 1280 ng·h/mL; Cmax [1]: 1470 ng/mL; half-life ([1]; read-out: t½ (converted)): 1.38 h
tert-butyl ester of 4-[2-[(2-chloro-acetyl)-(4-phenoxy-phenyl)-amino]-2-(4-fluoro-phenyl)-acetyl]-(S)-2-isopropyl-piperazine-1-carboxylic acid [I-1 dia2],–,–,–,–,EC50 (HL-60/R10): 23 nM; EC50 (MCF-7): 1300 nM; EC50 (MCF-7/adr): 39 nM; EC50 (HL-60): 824 nM
tert-butyl ester of 4-[-2-[(2-chloro-acetyl)-(4-phenoxy-phenyl)-amino]-2-(4-fluoro-phenyl)-acetyl]-(R)-2-isopropyl-piperazine-1-carboxylic acid [I-2 dia1],–,–,–,–,EC50 (HL-60/R10): 40 nM; EC50 (MCF-7): 2090 nM; EC50 (MCF-7/adr): 49 nM; EC50 (HL-60): 728 nM

# Source: patent US9877962B2, “Piperazinyl derivatives for the treatment of cancer” (priority 2011, dated 2018)
